Results on one substance are retold here after patent US9164099B2, “Site-specific labeling of affinity tags in fusion proteins” (LIFE TECHNOLOGIES CORPORATION, priority 2002, dated 2015).

What all share (format): binding
The subject of assay [1] is poly-histidine affinity tag containing fusion protein (urate oxidase). The assay can be described thus: Gel detection of His-tagged urate oxidase with and without nickel ions (FIG. 1). The conditions noted are these: staining solution without nickel ions compared with nickel ions. On the procedure:
FIG. 1B is a graph showing data from the same experiment performed without nickel ions.
Escherichia coli BL21 DE3 cells were transformed with plasmids containing either the human ATP synthase a subunit, the d subunit (including the leader sequence) or urate oxidase. Both proteins were constructed to have a poly-histidine affinity tag comprising six histidine residues, at the N-terminus and could be induced by isopropyl-beta-D-thiogalactoside (IPTG) addition to the medium. Pre-cultures (10 ml) were grown overnight in bacterial cell culture medium (LB medium) at 37° C. with constant shaking. The next day 100 μl was transferred to 50 ml of fresh LB medium containing 0.1 mg/ml ampicillin and grown until they reached an optical density at 595 nm (OD595) of 0.8. At this point 5 ml of culture was removed and immediately frozen on dry ice. To the rest of the culture 0.8 mM IPTG was added to induce the over-expression of the subunits. Samples (5 ml each) were taken after 10 min, 30 min, 1 h, 1.5 h, 2 h, 2.5 h, and 3 h and again frozen on dry ice. […]
The resulting green-fluorescent signal produced by compound 2 was visualized using the 473 nm excitation line of the SHG laser on the Fuji FLA-3000G Fluorescence Image Analyzer (Fuji Photo, Tokyo, Japan) with the 520 nm long pass filter or the 580 nm band pass filter, respectively. […]

The test system of assay [2] is oligohistidine-tagged fusion proteins (the a subunit of Escherichia coli ATPase and porin). The assay can be described thus: Detection of poly-histidine affinity tag fusion proteins on a microarray. Conditions: 10 μM compound, 50 mM PIPES pH 6.5. On the procedure: Purified oligohistidine-tagged fusion proteins (the a subunit of Escherichia coli ATPase and porin), as well as control proteins (bovine serum albumin and ovalbumin) are arrayed from a source plate (384 well plate) concentration of 0.468 μg/ml-0.240 mg/ml in water, onto HydroGel coated slides (Perkin Elmer), using the BioChip Arrayer™ (Perkin Elmer). The BioChip Arrayer™ utilizes a PiezoTip™ Dispenser consisting of 4 glass capillaries. Proteins are dispensed from the PiezoTip™ by droplets […] in volume to create array spots ˜200 microns in diameter with a 500 micron horizontal and vertical pitch (pitch=center to center spacing of spots). Proteins are arrayed in duplicate in four rows, with 10 dilution points. The resulting concentration range of the array is 166.5 pg/spot-0.325 pg/spot. For detection of oligohistine-tagged proteins, slides are incubated for 45 minutes on a rotator in 50% ethanol/7% acetic acid and then fixed overnight in fresh fixative solution to ensure complete elimination of SDS. Microarrays are next washed 3 times for 20 minutes each in deionized water. The microarrays are then incubated in a staining solution containing 10 μM Compound 2 or Compound 15; 50 mM PIPES at pH 6.5 for 45-90 minutes. Afterwards, the microarrays are washed 2 to 4 times for 20 minutes each in deionized water. […]

Assay [3] addresses T1, poly-histidine affinity tag containing fusion protein (Oligomycin sensitivity conferring protein; OSCP) (Homo sapiens, UniProt P48047).
T1 construct: poly-histidine; made in house
T1 sequence (P48047 24-213): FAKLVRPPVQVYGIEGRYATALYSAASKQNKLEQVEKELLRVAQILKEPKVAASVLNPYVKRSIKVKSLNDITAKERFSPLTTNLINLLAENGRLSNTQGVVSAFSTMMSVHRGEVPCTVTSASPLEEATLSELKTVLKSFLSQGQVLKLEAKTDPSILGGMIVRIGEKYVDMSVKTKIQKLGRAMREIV
The assay can be described thus: Gel detection of His-tagged OSCP followed by SYPRO Ruby total protein stain (FIG. 2, 3). The conditions noted are these: staining solution containing nickel ions; compared with SYPRO Ruby total protein stain. The source says:
FIG. 2: FIG. 2A is a graph showing the detection of a poly-histidine affinity tag containing fusion protein (Oligomycin sensitivity conferring protein; OSCP) labeled with Compound 2 in a staining solution containing nickel ions followed by the detection of (shown in FIG. 2B) total protein using the total protein stain SYPRO® Ruby.
FIG. 3: FIG. 3A is a graph showing the detection of a poly-histidine affinity tag containing fusion protein (Oligomycin sensitivity conferring protein; OSCP) labeled with Compound 15 in a staining solution containing nickel ions followed by the detection of (shown in FIG. 3B) total protein using the total protein stain SYPRO® Ruby.
Following separation of the proteins on a SDS-polyacrylamide gel, the gels were fixed for 20 minutes in 100 ml of 50% ethanol/7% acetic acid and then fixed overnight in 100 ml of fresh fixative solution to ensure complete elimination of SDS. Gels were next washed 3 times for 20 minutes each in deionized water. The gels were then incubated in a staining solution containing 10 μM compound 1 or 2 μM compound 2; 100 μM NiCl2; 50 mM PIPES at pH 6.5 for 45-90 minutes in a total volume of 25 ml. Afterwards, the gels were washed 2 to 4 times for 20 minutes each in deionized water. In order to ensure that the optimal signal was documented, gels were imaged after the second and fourth wash. […]

Take “4,4-difluoro-4-bora-3a,4a-diaza-s-indacene-3,5-bis((6-(propionyl)amino-2-bis(carboxymethyl)amino)hexanoic acid), hexatriethylammonium salt [Compound 2]”: the “sensitivity for the poly-histidine affinity tag” value in assay [1] is “increased sensitivity”. In addition, the “signal on control proteins (bovine serum albumin and ovalbumin)” value in assay [2] is “little or no signal”. Moreover, in assay [3], the “selectivity for the poly-histidine affinity tag” value was “selective”.
